Reference: ChEMBL document CHEMBL1201862, “PubChem BioAssay data set” (2004)
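Growth conditions: 96-well plates. Treatment: test compound, 48 hours, 5 concentrations. Analysis: linear interpolation between bracketing concentrations; unreached endpoints set to highest concentration. The concentration for 50% growth inhibition is given as GI50.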 The source made the active and inactive calls. Rule as the data show it: active = GI50 up to about 1.1 µM and inactive = higher.

Columns and labels:
Experiment in all cases: inhibition of tumour cell growth, NCI panel, 48 h
[1] = tested on: 786-0
[2] = tested on: A498
[3] = tested on: A549
[4] = tested on: ACHN
[5] = tested on: BT-549
[6] = tested on: CAKI-1
[7] = tested on: CCRF-CEM
[8] = tested on: COLO 205
[9] = tested on: DU-145
[10] = tested on: EKVX
[11] = tested on: HCC 2998
[12] = tested on: HCT-116
[13] = tested on: HCT-15
[14] = tested on: HL-60
[15] = tested on: HOP-62
[16] = tested on: HOP-92
[17] = tested on: HT-29
[18] = tested on: Hs-578T
[19] = tested on: IGROV-1
[20] = tested on: K562
[21] = tested on: KM12
[22] = tested on: LOX IMVI
[23] = tested on: M14
[24] = tested on: MCF7
[25] = tested on: MDA-MB-231
[26] = tested on: MDA-MB-435
[27] = tested on: MDA-N
[28] = tested on: MOLT-4
[29] = tested on: Malme-3M
[30] = tested on: NCI-H226
[31] = tested on: NCI-H23
[32] = tested on: NCI-H460
[33] = tested on: NCI-H522
[34] = tested on: NCI/ADR-RES
[35] = tested on: OVCAR-3
[36] = tested on: OVCAR-4
[37] = tested on: OVCAR-5
[38] = tested on: OVCAR-8
[39] = tested on: PC-3
[40] = tested on: RPMI-8226
[41] = tested on: RXF 393
[42] = tested on: SF-268
[43] = tested on: SF-295
[44] = tested on: SF-539
[45] = tested on: SK-MEL-28
[46] = tested on: SK-MEL-2
[47] = tested on: SK-MEL-5
[48] = tested on: SK-OV-3
[49] = tested on: SN12C
[50] = tested on: SNB-19
[51] = tested on: SNB-75
[52] = tested on: SR
[53] = tested on: SW-620
[54] = tested on: T47D
[55] = tested on: TK-10
[56] = tested on: U-251
[57] = tested on: UACC-257
[58] = tested on: UACC-62
[59] = tested on: UO-31

Measured: GI50

Cn1c(=O)cc(NNc2ccccc2)[nH]c1=O
16.4 µM: [13]
inactive: [1] 16.2 µM | [2] > 100 µM | [3] > 100 µM | [4] 36.4 µM | [5] > 100 µM | [6] 15.6 µM | [7] 34.1 µM | [8] > 100 µM | [9] 54.2 µM | [10] 36.1 µM | [11] > 100 µM | [12] 17.8 µM | [14] 26.7 µM | [15] > 100 µM | [16] 22.1 µM | [17] 15.7 µM | [18] > 100 µM | [19] 25.4 µM | [20] 38.2 µM | [21] 26.3 µM | [22] 14.9 µM | [23] 29.9 µM | [24] 1.78 µM | [25] 18.7 µM | [26] 28.2 µM | [27] > 100 µM | [28] 37.9 µM | [29] 19.9 µM | [30] > 100 µM | [31] > 100 µM | [32] > 100 µM | [33] 15.1 µM | [34] > 100 µM | [35] 16.7 µM | [36] > 100 µM | [37] 85.5 µM | [38] 20.9 µM | [39] > 100 µM | [40] 17.1 µM | [41] 18 µM | [42] 44.3 µM | [43] > 100 µM | [44] > 100 µM | [45] 28.6 µM | [46] 36 µM | [47] > 100 µM | [48] > 100 µM | [49] 61.5 µM | [50] > 100 µM | [51] > 100 µM | [52] 10.7 µM | [53] 17.5 µM | [54] 17.6 µM | [55] 30.3 µM | [56] 17.8 µM | [57] 48.3 µM | [58] 59.4 µM | [59] 83.2 µM
